Assay results published in ChEMBL document CHEMBL4483862, “Open-source discovery of chemical leads for next-generation chemoprotective antimalarials” (2018).

Test system: Plasmodium berghei
Experiment: Luciferase/luciferin-expressing antifolate-resistant parasites were used to infect a culture of HepG2 cells that were pre-incubated with compounds. Infected hepatocytes emit light due to the luciferase reaction. Assay results are presented as the percent inhibition of light emission compared to control. […]
Assay type: functional
Settings: sporozoite; for IC50: read-out: LUCIFERASE INFECTION ASSAY - IC50; for IC90: read-out: LUCIFERASE INFECTION ASSAY - IC90

Row | SMILES | IC50 | IC90
1 | Cc1ccc(NC(=O)c2ccc(Cl)c(NC(=O)c3cccs3)c2)cc1 | > 8.9 µM | > 8.9 µM
2 | Cc1ccc(CSc2nnc(-c3ccccc3N)c(O)n2)cc1 | > 10.2 µM | > 10.2 µM
3 | Brc1ccc(CNc2ccc3ncccc3c2)cc1 | > 10.5 µM | > 10.5 µM
4 | COc1cc2c(cc1NC(=O)c1cccc(F)c1)CCCC2 | 4.59 µM | > 11 µM
5 | CCOc1ccccc1NC(=O)CN(C)S(=O)(=O)c1ccc(OC)c(C)c1 | > 8.41 µM | > 8.41 µM
6 | O=C1c2cccnc2C(=O)N1Cc1ccc2c(c1)OCO2 | > 11.7 µM | > 11.7 µM
7 | O=C(Nc1ccc(F)cc1)c1ccc(CN2CCc3ccccc3C2)cc1 | > 9.16 µM | > 9.16 µM
8 | CC1CCN(CC(O)COC2CC(C)CC(C)(C)C2)CC1 (configuration not stated) | > 9.88 µM | > 9.88 µM
9 | CC1CCC(C(C)C)C(OCC(O)CN2C(C)CCCC2C)C1 (configuration not stated) | > 9.12 µM | > 9.12 µM
10 | COc1cccc(C(=O)Nc2nc3ccc(C)cn3c2C(=O)NCC(C)C)c1 | 2.62 µM | 4.69 µM
11 | CCC(C)NC(=O)c1c(NC(=O)c2ccc(F)cc2F)nc2ccc(C)cn12 (configuration not stated) | 2.9 µM | 3.23 µM
12 | Cc1ccc(NC(=O)CSc2ccc(Nc3ccc(C)cc3)nn2)cc1 | > 9.05 µM | > 9.05 µM
13 | CCOC(=O)C1=C(Nc2cccc(Cl)c2)S/C(=C\c2ccc(C)cc2)C1=O | > 8.25 µM | > 8.25 µM
14 | Cc1ccc2nc(NC(=O)c3cccc(F)c3)c(C(=O)NC3CCCC3)n2c1 | 0.886 µM | 1.08 µM
15 | CCCCNC(=O)c1c(NC(=O)c2ccc(OC)cc2)nc2c(C)cccn12 | > 8.67 µM | > 8.67 µM
16 | CCC(CC)CN1C[C@H](OCc2ccccc2)C[C@H]1C(=O)NC(c1ccccc1)c1ccccc1 | > 7.01 µM | > 7.01 µM
17 | CCSc1ccccc1C(=O)Nc1ccc(C(=O)OC)cc1 | > 10.5 µM | > 10.5 µM
18 | Cc1ccc2nc(NC(=O)c3ccc(Cl)cc3)c(C(=O)NCC(C)C)n2c1 | 2.76 µM | 2.91 µM
19 | O=C(Nc1cccc(Cl)c1)OCc1ccccc1F | > 11.8 µM | > 11.8 µM
20 | COc1cccc(CC(=O)Nc2nc3ccc(C)cn3c2C(=O)NC2CCCC2)c1 | > 8.12 µM | > 8.12 µM
21 | CCCCNC(=O)c1c(NC(=O)c2ccc(F)cc2)nc2ccc(C)cn12 | 2.67 µM | 3.28 µM
22 | CC1=NN(c2ccc(C)c(Cl)c2)C(=O)/C1=C\c1ccc2c(c1)OCO2 | > 9.3 µM | > 9.3 µM

Row | SMILES | IC50 | IC90
23 | Cc1ccc(CC2CC(=O)N(C3CCCCC3)C2=O)cc1 (configuration not stated) | > 11.6 µM | > 11.6 µM
24 | Cc1cccc(C(=O)Nc2sc3c(c2C(=O)N2CCCCC2)CCCCC3)c1 | 0.805 µM | 6.3 µM
25 | O=C(Nc1ccc(Cl)c(Cl)c1)Nc1ccc2c(c1)OCCO2 | > 9.73 µM | > 9.73 µM
26 | COCCN1C=C(C(=O)OC)C(c2cccc(O)c2)C(C(=O)OC)=C1 | > 9.5 µM | > 9.5 µM
27 | CCCN(CCC(=O)Nc1cccc(Cl)c1)CC1CC1 | > 11.2 µM | > 11.2 µM
28 | CC(C)c1ccc(OCC(=O)Nc2ccccc2C(F)(F)F)cc1 | > 9.78 µM | > 9.78 µM
29 | Cc1ccc2nc(NC(=O)C3CCCC3)c(C(=O)NC3CCCC3)n2c1 | > 9.31 µM | > 9.31 µM
30 | COCCNc1nc(-c2ccc(Cl)cc2)nc2ccccc12 | > 10.5 µM | > 10.5 µM
31 | CCOC(=O)c1ccc2c(c1)C1C=CCC1C(c1cccnc1)N2 (configuration not stated) | > 10.3 µM | > 10.3 µM
32 | Cc1ccc2nc(NC(=O)c3ccc(C(F)(F)F)cc3)c(C(=O)NC3CCCC3)n2c1 | 0.593 µM | 1.95 µM
33 | Cc1ccccc1OCCOC(=O)Nc1ccccc1 | > 12.2 µM | > 12.2 µM
34 | Cc1ccc(C(C)(C)CC(C)NCc2ccc(Cl)cc2)o1 (configuration not stated) | > 10.8 µM | > 10.8 µM
35 | COCCNCCOc1ccc(OCc2ccccc2)cc1 | > 10.9 µM | > 10.9 µM
36 | CCCCNC(=O)c1c(NC(=O)c2c(F)cccc2F)nc2ccc(C)cn12 | 5.12 µM | 6.69 µM
37 | CC(C)CN(CC(C)C)CC(O)COc1ccccc1 (configuration not stated) | > 11.8 µM | > 11.8 µM
38 | Cc1cccn2c(C(=O)NC3CCCCC3)c(NC(=O)c3cccc(F)c3)nc12 | > 8.37 µM | > 8.37 µM
39 | CCCNC(=O)c1c(NC(=O)c2cccc(F)c2)nc2ccccn12 | 4.52 µM | 7.76 µM
40 | Fc1ccc(CN2CCN(Cc3ccco3)CC2)cc1 | > 12 µM | > 12 µM
41 | Cc1ccc(Cn2nnc(-c3ccccc3C)n2)cc1 | > 12.5 µM | > 12.5 µM
42 | O=C(Nc1nc2ccccn2c1C(=O)NC1CCCC1)c1ccc(F)cc1F | 2.94 µM | 3.49 µM
43 | O=C(Nc1nc2ccccn2c1C(=O)NC1CCCC1)c1ccc(F)cc1 | > 9.01 µM | > 9.01 µM
44 | Cc1ccc2nc(NC(=O)c3ccccc3)c(C(=O)NC3CCCC3)n2c1 | 3.06 µM | 3.58 µM

Row | SMILES | IC50 | IC90
45 | Cc1ccc(C)c(OCC(O)CN2CCc3ccccc3C2)c1 (configuration not stated) | > 9.49 µM | > 9.49 µM
46 | CCc1c(C)[nH]c2c(-c3ccc(Cl)cc3)cnn2c1=O | 5.93 µM | 11 µM
47 | O=C(c1ccco1)N(Cc1nccs1)c1ccc(-c2ccccc2)cc1 | > 9.16 µM | > 9.16 µM
48 | O=C(COCc1ccccc1)Nc1nc2ccccn2c1C(=O)NC1CCCCC1 | > 8.12 µM | > 8.12 µM
49 | CCCNC(=O)c1c(NC(=O)c2cccc(C(F)(F)F)c2)nc2ccccn12 | 0.399 µM | 0.786 µM
50 | CCOc1ccc(NC(=O)CCOc2cccc(C)c2)cc1 | > 11 µM | > 11 µM
51 | CCOc1ccccc1C(=O)NCCc1cccc(Cl)c1 | > 10.9 µM | > 10.9 µM
52 | CCCCNC(=O)c1c(NC(=O)c2ccccc2C)nc2ccc(C)cn12 | 6.48 µM | > 9.05 µM
53 | CCCCNC(=O)c1c(NC(=O)c2cccc(F)c2)nc2ccc(C)cn12 | 1.29 µM | 2.84 µM
54 | C=CCNC(=O)CN(c1ccc(Br)cc1)S(C)(=O)=O | > 9.5 µM | > 9.5 µM
55 | Cc1[nH]c2c(-c3ccccc3)c(C(F)(F)F)nn2c(=O)c1Cc1ccccc1 | 7.44 µM | > 8.61 µM
56 | Cc1cccn2c(C(=O)NC(C)C)c(NC(=O)c3cccc(C(F)(F)F)c3)nc12 | > 8.16 µM | > 8.16 µM
57 | Cc1c(Cl)cccc1-c1ccc(C(=O)NCc2ccco2)o1 | > 10.5 µM | > 10.5 µM
58 | CCc1ccccc1N(CC(=O)NCC(C)C)S(=O)(=O)c1ccc(C)cc1 | > 8.49 µM | > 8.49 µM
59 | CC1=C(C(=O)OCc2ccccc2)C(c2ccc(C(F)(F)F)cc2)CC(=O)N1 (configuration not stated) | > 8.48 µM | > 8.48 µM
60 | CCOc1cc(/C=C/c2ccc3cccc(O)c3n2)cc(Br)c1O | 3.28 µM | 3.78 µM
61 | CCC(C)NC(=O)c1c(NC(=O)c2ccc(Cl)cc2)nc2ccc(C)cn12 (configuration not stated) | 2.58 µM | 3.02 µM
62 | COc1cccc(CC(=O)N2C[C@H](OC)C[C@H]2C(=O)NCC2CCCCC2)c1 | > 8.49 µM | > 8.49 µM
63 | Cc1ccc2nc(NC(=O)COCc3ccccc3)c(C(=O)NC3CCCCC3)n2c1 | > 7.85 µM | > 7.85 µM
64 | CCCCNC(=O)c1c(NC(=O)c2cccc(F)c2F)nc2ccccn12 | > 8.86 µM | > 8.86 µM
65 | COc1ccc(C2CC(=O)Nc3ccc4ccccc4c32)c(OC)c1OC (configuration not stated) | > 9.08 µM | > 9.08 µM
66 | CCCCNC(=O)c1c(NC(=O)c2cccc(OC)c2)nc2ccc(C)cn12 | 2.79 µM | 3.2 µM
